Measured values taken from US9636323B2, “Method of treating cancer that overexpresses TopBP1” (Baylor College of Medicine, priority 2014, dated 2017).

Tests used:
[1] = biological target: T1, TopBP1/E2F1 interaction in HEK293T cells (Homo sapiens, UniProt Q92547); assay: Co-immunoprecipitation of overexpressed E2F1 and TopBP1; format: cell-based; conditions: 5 h
T1 construct: expressed in transfected cells
Protocol: (§1) MDA-MB468 cells were lysed with TNN buffer (Liu et al. 2003). An aliquot of cell lysates was lysed with SDS lysis buffer and the rest of cell lysates were incubated with appropriate antibodies or beads at 4° C. for 3-12 h. Anti-FLAG beads (Sigma) were washed three times with TNN buffer. Immunoprecipitates were fractionated by SDS-PAGE and electro-transferred to Immobilon-P membrane (Millipore). Equal amount of protein loading was validated with Ponceau-S staining. The specific signals were detected by incubating with appropriate antibody. All primary antibodies were used at 1:1000 dilution and horseradish peroxidase (HRP)-conjugated secondary antibodies were used at 1:5000 dilution for immunoblotting. E2F1 (C-20 and KH-95), p53 (FL393), p63 (4A4 and H-129), p73 (H-79), p21 (C-19), Bax (N-20), GST (B-14), c-Myc (A14), Miz1 (H-190), Chk1 (G4), Actin (C-2) and GAPDH (6C5) antibodies were purchased from Santa Cruz. TopBP1 (mouse monoclonal) and Aid antibodies were purchased from BD Transduction Laboratories. TopBP1 (BL893, Rabbit polyclonal) antibody was purchased from Bethyl. Mouse monoclonal anti-phospho-γH2AX was purchased from Millipore. Phospho-Chk1 (Ser345) antibody was purchased from Cell signaling. FLAG (F7425) antibody was purchased from Sigma. Mouse monoclonal anti-p73 (IMG-246) was purchased from IMGENEX.

TopBP1/E2F1 interaction = biological target: T2, TopBP1/E2F1 interaction (Homo sapiens, UniProt Q92547); assay: Co-immunoprecipitation in BT549 cells, TopBP1/E2F1; format: cell-based; conditions: 2.5 μM, 3 h
T2 construct: endogenous in cells; host or cells: MDA-MB468

[2] = system: E2F sites of the p68 subunit of DNA polymerase α promoter; assay: pKL12 / pKL12-E2FAB promoter construct assay; format: cell-based; conditions: wild-type versus mutated E2F sites
[3] = system: p53 targets p21 and Bax in HCT116 cells; assay: Induction of p21 and Bax in isogenic p53+/+ and p53−/− HCT116 cells; format: cell-based; conditions: p53+/+ versus p53−/− HCT116
MCF7 cells = assay: Caspase 3/7 activity assay, MCF7; format: cell-based, human; conditions: 2.5 μM overnight
Protocol: (§2) The apoptosis was measured by Caspase-Glo® 3/7 assay (Promega) following the manufacturer's protocol. The cells were plated in 6-well tissue culture dish (10^4 cells/well) (BD Falcon) in respective media. […] The blank reactions were prepared per direction. Equal volume of Caspase-Glo® 3/7 reagents were applied to each well. A luminometer (Sirius) was used to quantitate luminescence.

[4] = system: SKOV-3 ovarian cancer cells; assay: MTS assay, SKOV-3; format: cell-based, human
Protocol: Then 50 μl of MTS reagent (CellTiter 96® AQueous One Solution Cell Proliferation Assay, Promega) was added to each well, covered from light and incubated for 1 h at 37.0 incubator to develop purple color. The samples were measured at 490 nm in a plate reader (BioTek Synergy HT) against a blank 48-well plate. Each assay was done in triplicate.

[5] = system: TopBP1 checkpoint activation (Chk1); assay: HU-induced Chk1 activation; format: cell-based
Protocol: as §1

MDA-MB468 xenografts = assay: MDA-MB468 xenograft model; format: in vivo, nude mice
Protocol: Female nu/nu mice (4-5 weeks old) were purchased from Charles River Laboratories (Cambridge, Mass.). The animals were cared for and maintained by the Animal Care and Use Committee of Baylor College of Medicine. Freshly grown MDA-MB468 breast cancer cells [(8×10^6) cells per site in 100 μl phosphate-buffered saline (PBS)] were injected subcutaneously into the right side of the flank of the 5-6 weeks old mice. When tumors were measurable, the mice were randomly divided into treatment and control groups. […] The control group mice were injected with vehicle (DMSO) in the same way. The mice were monitored thrice per week. The weight of the mice and tumor size were measured on the indicated day with a caliper and calculated based on the formula π/6 (length×depth×width). The evaluator was blinded to the group allocation during monitoring. Animals were sacrificed in the indicated dates, and tumors were harvested, weighed, and further processed for histopathological analysis. All experiments were performed under a Baylor College of Medicine Institutional Animal Care and Use Committee (IACUC)-approved protocol and all experiments confirm to IACUC standards and ethical regulations.
Next day the samples were sent to The Pathology and Histology Core of Baylor College of Medicine for further processing. The paraffin-embedded sections were stained with H&E, Ki-67, TUNEL and anti-cleaved caspase-3 using standard operating protocols.

[6] = system: mice (intestinal tissues); assay: Tolerability and acute toxicity in proliferating tissues after i.p. injection; format: in vivo
[7] = system: 4T1 mouse breast tumor cells; assay: Apoptosis in mouse tumor cells; format: cell-based
Protocol: as §2

[8] = system: McA-RH7777 rat hepatoma cells; assay: Apoptosis in rat tumor cells; format: cell-based
Protocol: as §2

Jurkat-T cells = assay: Caspase 3/7 activation assay, Jurkat-T; format: cell-based; conditions: 2.5 μM, 7 hours
Protocol: as §2

[9] = system: U-87 MG glioblastoma multiforme cells; assay: Caspase 3/7 activation assay, U-87 MG; format: cell-based; conditions: 2.5 or 5 μM, 16 hours
Protocol: as §2

NCI-H522 = conditions: NCI-DTP database; cited from earlier work
[10] = 40 mg/kg i.p. every three days for three doses

T2 sequence (Q92547 whole entry): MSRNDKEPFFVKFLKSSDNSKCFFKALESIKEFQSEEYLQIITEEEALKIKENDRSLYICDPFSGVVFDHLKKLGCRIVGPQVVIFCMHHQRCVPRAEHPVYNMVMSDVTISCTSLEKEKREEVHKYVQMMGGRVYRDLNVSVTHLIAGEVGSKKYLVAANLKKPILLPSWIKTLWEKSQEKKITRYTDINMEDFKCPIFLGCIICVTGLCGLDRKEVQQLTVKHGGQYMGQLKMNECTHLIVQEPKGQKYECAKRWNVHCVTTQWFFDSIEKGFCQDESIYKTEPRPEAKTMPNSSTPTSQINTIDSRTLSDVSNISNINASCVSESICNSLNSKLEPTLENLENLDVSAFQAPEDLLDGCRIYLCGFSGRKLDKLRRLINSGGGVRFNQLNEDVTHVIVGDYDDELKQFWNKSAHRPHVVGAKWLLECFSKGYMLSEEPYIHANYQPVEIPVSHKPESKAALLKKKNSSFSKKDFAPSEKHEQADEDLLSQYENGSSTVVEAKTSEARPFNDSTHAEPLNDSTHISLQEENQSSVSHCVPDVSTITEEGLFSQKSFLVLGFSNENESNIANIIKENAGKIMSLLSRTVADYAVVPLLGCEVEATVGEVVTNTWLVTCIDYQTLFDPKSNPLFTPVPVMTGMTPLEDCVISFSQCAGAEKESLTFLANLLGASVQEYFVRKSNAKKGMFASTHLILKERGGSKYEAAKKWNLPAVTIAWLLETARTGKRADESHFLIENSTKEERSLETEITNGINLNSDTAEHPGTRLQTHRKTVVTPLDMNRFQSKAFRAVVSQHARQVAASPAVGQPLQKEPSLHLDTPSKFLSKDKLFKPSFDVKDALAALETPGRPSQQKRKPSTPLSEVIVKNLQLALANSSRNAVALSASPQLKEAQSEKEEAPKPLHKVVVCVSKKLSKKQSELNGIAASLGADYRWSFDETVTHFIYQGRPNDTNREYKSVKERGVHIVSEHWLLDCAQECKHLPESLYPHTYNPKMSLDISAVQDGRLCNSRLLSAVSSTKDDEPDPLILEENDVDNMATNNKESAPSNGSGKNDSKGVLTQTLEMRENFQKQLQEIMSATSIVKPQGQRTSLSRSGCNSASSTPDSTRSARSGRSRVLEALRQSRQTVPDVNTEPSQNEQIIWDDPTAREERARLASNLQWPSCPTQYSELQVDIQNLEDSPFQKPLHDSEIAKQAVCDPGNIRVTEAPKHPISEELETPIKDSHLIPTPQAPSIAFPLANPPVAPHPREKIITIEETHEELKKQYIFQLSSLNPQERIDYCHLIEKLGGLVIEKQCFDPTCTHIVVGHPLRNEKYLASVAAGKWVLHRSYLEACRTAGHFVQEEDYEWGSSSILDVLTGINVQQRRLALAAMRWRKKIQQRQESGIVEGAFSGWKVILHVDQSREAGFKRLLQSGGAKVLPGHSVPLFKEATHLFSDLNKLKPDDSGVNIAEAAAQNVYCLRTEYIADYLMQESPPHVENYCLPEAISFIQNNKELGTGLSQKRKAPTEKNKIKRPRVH
T1 sequence (Q92547 whole entry): as above

Structure (SMILES): CC(=O)OCOC(=O)CN(CC(=O)OCOC(C)=O)Cc1cc2c(cc1OC(C)=O)Oc1cc(OC(C)=O)c(CN(CC(=O)OCOC(C)=O)CC(=O)OCOC(C)=O)cc1C21OC(=O)c2ccccc21 [Calcein AM, Calcein AM (acetoxymethyl ester)]
- interaction between overexpressed E2F1 and TopBP1 [1]: inhibited the interaction between overexpressed E2F1 and TopBP1
- interaction between TopBP1 and E2F1 (TopBP1/E2F1 interaction): inhibited
- induction of promoter activity on pKL12 and pKL12-E2FAB [2]: could only induce the activity on pKL12, but not on pKL12-E2FAB
- induction of p21 and Bax [3]: observed on in p53^+/+, but not in p53^−/−
- apoptosis (caspase 3/7 activity) (MCF7 cells): induced apoptosis
- proliferation (MTS) ([4]; Calcein AM 5 μM in combination with cisplatin 20 μM, 20 h): inhibited the proliferation
- proliferation (MTS) ([4]; Calcein AM alone, overnight): inhibited the proliferation
- HU-induced Chk1 activation [5]: did not block HU-induced Chk1 activation
- body weights of mice (MDA-MB468 xenografts; [10]): without affecting body weights
- expression of proliferation marker Ki-67 in xenografts (MDA-MB468 xenografts; [10]): significantly inhibited
- xenograft growth (MDA-MB468 xenografts; [10]): significantly inhibited xenograft growth
- immunohistochemistry of xenografts (Ki-67, TUNEL, cleaved caspase 3) (MDA-MB468 xenografts; one week after the second injection): inhibition of proliferation and induction of apoptosis
- tumor response to second round of treatment (MDA-MB468 xenografts; regrown tumors, second round from day 61): responded to Calcein AM injection again
- apparent toxicity in injected mice ([6]; 40 mg/kg): did not manifest any apparent toxicity
- Ki-67 staining in intestinal epithelium ([6]; 40 mg/kg, 48 h after injection): did not decrease Ki-67 staining
- apoptosis in intestinal epithelium ([6]; 40 mg/kg, 48 h after injection): nor did it induce apoptosis
- tolerability of i.p. injections ([6]; throughout the course of treatment): appeared to tolerate
- apoptosis [7]: induced apoptosis
- apoptosis [8]: induced apoptosis
- cell killing (caspase 3/7 activation) (Jurkat-T cells): active in killing
- apoptosis (caspase 3/7 activation) [9]: induced apoptosis
- GI50 (NCI-H522): < 1 µM
